{"source": "patent US20200369728A1", "about": "“PEPTIDOMIMETIC MACROCYCLES AND USES THEREOF” (Aileron Therapeutics, Inc., priority 2015, published 2020)", "key": {"MV4-11": {"tested_on": "MV4-11", "assay": "WST-1 / MTT cell viability, MV4-11", "conditions": "MV4-11, sequential treatment, 72 hrs", "method": "Initially, various MV4-11 cell numbers were plated and evaluated 3-7 days later to determine the optimal number of cells to be plated and treatment duration.\nCells were evaluated for viability by WST-1 assay or MTT assay 3-7 days after beginning treatment.\n(§1) A drug combination index plot was used to assess the synergistic, additive, or antagonistic properties of each combination treatment. […] Combination index (CI) values were calculated using the CompuSyn software. The data were expressed as log(CI)."}, "AML cell lines": {"tested_on": "AML cell lines", "assay": "Cellular proliferation in AML cells treated with Ara-C", "format": "cell-based", "conditions": "Ara-C alone"}, "DOHH-2": {"tested_on": "DOHH-2", "assay": "WST-1 / MTT cell viability, DOHH-2", "format": "cell-based, human", "conditions": "for IC50: Homo sapiens, DOHH-2, 72 h", "method": "Initially, various DOHH-2 cell numbers were plated and evaluated 3-7 days later to determine the optimal number of cells to be plated and treatment duration.\nas §1\nThe anticancer activity of the combination treatment was assessed based on the order of addition of the drugs."}, "[1]": {"assay": "MCF-7 breast cancer xenograft study, body weight and deaths", "format": "in vivo, mice", "conditions": "for mice died during treatment: 10 mice per group; for % BW Change / No. with ≥10% BW Loss / No. with ≥20% BW Loss or death: Days 18-39", "excerpt": "A negative control stapled peptide."}, "SJSA-1": {"tested_on": "SJSA-1", "assay": "Cell viability assay (MTT), SJSA-1"}, "[2]": {"tested_on": "MCF-7 breast cancer xenograft", "assay": "MCF-7 breast cancer xenograft study, tumor growth inhibition", "conditions": "30 mg/kg three times per week iv", "method": "This formulation was prepared once for the duration of the study.\nEach group was assigned to a different treatment regimen.\nDuring the dosing period the mice were weighed and tumors measured 1-2 times per week."}, "FIGURE 19": {"assay": "FIGURE 19", "excerpt": "Table printed on a drawing sheet, FIGURE 19\nFirst reader's note: The table is an inset in a plot of solubility against the number of amino acids C-terminal to the cross-link."}, "MCF-7": {"tested_on": "MCF-7", "assay": "WST-1 / MTT cell proliferation assay, MCF-7 (single agents and combinations)", "format": "cell-based, human", "conditions": "for effect on MCF-7 cell proliferation: single agent, 5 days; for IC50: Homo sapiens", "method": "All media were supplemented with 10% (v/v) fetal calf serum, 100 units penicillin and 100 μg/ml streptomycin at 37° C. and 5% CO2. Prior to dosing, MCF-7 cells were switched to serum free medium and grown at 37° C. overnight.\nOne day prior to assaying, cells were trypsinized, counted and seeded at pre-determined densities in 96-well plates as follows: MCF-7, 5000 cells/well/200 μl; MOLT-3, 30,000 cells/well/200 μl. […] The WST-1 variant of the MTT assay was used to measure cell viability according to the manufacturer's protocol. WST-1 is a cell-impermeable, sulfonated tetrazolium salt that can be used to examine cell viability without killing the cells.\nCombination index (CI) values were calculated using the CompuSyn software. The data were expressed as log(CI).\nCells were evaluated for viability by WST-1 assay or MTT assay 3-7 days after beginning the simultaneous treatments (FIGS. 25, 30 and 31).\nCells were evaluated for viability by WST-1 assay or MTT assay 3-7 days or 120 hrs after beginning treatment (FIGS. 24A and 35). […] Cells were evaluated for viability by WST-1 assay or MTT assay 3-7 days after beginning the simultaneous treatments (FIGS. 36 and 37)."}, "MDMX (In-house, 40 kD)": {"target": "T1, MDMX (In-house, 40 kD) (UniProt O15151)", "T1 sequence (looked up)": "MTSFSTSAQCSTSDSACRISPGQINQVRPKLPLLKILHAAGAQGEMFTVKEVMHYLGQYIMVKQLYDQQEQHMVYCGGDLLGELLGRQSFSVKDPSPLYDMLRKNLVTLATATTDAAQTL", "assay": "competitive fluorescence polarization, displacement of FAM-labeled linear peptide from MDMX; grade decoded by the scale of Table 4"}, "MDM2 (In-house, 41 kD)": {"target": "MDM2 (In-house, 41 kD) (UniProt Q00987)", "sequence (Q00987 1-125 limits assumed)": "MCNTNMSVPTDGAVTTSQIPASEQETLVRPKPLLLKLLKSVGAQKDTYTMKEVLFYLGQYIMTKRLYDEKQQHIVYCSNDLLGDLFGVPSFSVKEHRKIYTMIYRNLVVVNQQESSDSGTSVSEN", "assay": "competitive fluorescence polarization, displacement of FAM-labeled linear peptide from MDM2; grade decoded by the scale of Table 4"}, "[3]": {"conditions": "DOHH-2, sequential treatment, 72 hrs"}, "[4]": {"conditions": "30 mg/kg three times per week iv"}}, "note": "Values joined by “and” are separate entries in the source; they are usually repeats but may differ in a detail not shown here. Identical values can stand only once. Bridge positions count the residues as written; N and C are the ends. Square brackets hold non-standard residues; d marks the D form. Ends that are not written are not given here. Peptide text beside a SMILES is read from it. Phe(4-COOH) = N[C@@H](Cc1ccc(C(=O)O)cc1)C(=O)O; R8 = C=CCCCCCC[C@@](C)(N)C(=O)O; Cba = N[C@@H](CC1CCC1)C(=O)O; S5 = C=CCCC[C@](C)(N)C(=O)O", "data": [{"compound": "Nc1ccn([C@@H]2O[C@H](CO)[C@@H](O)[C@@H]2O)c(=O)n1", "note": "[Ara-C, cytarabine, reference compound]", "values": [{"measurement": "order of addition: effect on cell growth, AP1 and Ara-C", "setting": "MV4-11", "result": "suppressed MV4-11 cell growth with or without AP1"}, {"measurement": "proliferation of AML cell lines", "setting": "AML cell lines", "result": "inhibits proliferation of AML cell lines"}]}, {"compound": "O=P1(N(CCCl)CCCl)NCCCO1", "note": "(centres unmarked) [CTX, cyclophosphamide, reference compound]", "values": [{"measurement": "order of addition: effect on cell growth, AP1 and CTX", "setting": "DOHH-2; [3]", "result": "suppressed DOHH-2 cell growth with or without AP1"}, {"measurement": "IC50", "setting": "DOHH-2; CTX + 0.07 μM AP1, DOHH-2, 72 hours", "result": 411, "unit": "µM"}, {"measurement": "IC50", "setting": "DOHH-2; CTX + 0.2 μM AP1, DOHH-2, 72 hours", "result": 172, "unit": "µM"}, {"measurement": "IC50", "setting": "DOHH-2; CTX + 0.6 μM AP1, DOHH-2, 72 hours", "result": 258, "unit": "µM"}, {"measurement": "IC50", "setting": "DOHH-2; CTX alone", "result": 1980, "unit": "µM"}]}, {"compound": "CC[C@H](C)[C@H](NC(=O)[C@H](C)NC(=O)[C@H](C)NC(=O)[C@]1(C)CCCC=CCCCCCC[C@@](C)(NC(=O)[C@H](Cc2ccccc2)NC(=O)[C@@H](NC(=O)[C@H](CC(C)C)NC(C)=O)[C@@H](C)O)C(=O)N[C@@H](CCC(=O)O)C(=O)N[C@@H](Cc2ccc(C(=O)O)cc2)C(=O)N[C@@H](Cc2c[nH]c3ccccc23)C(=O)N[C@@H](C)C(=O)N[C@@H](CCC(N)=O)C(=O)N[C@@H](CC2CCC2)C(=O)N1)C(=O)N[C@H](C)C(N)=O", "note": "[SP249] (Ac-LTF[R8]E[Phe(4-COOH)]WAQ[Cba][S5]AAI[dA]-NH2; staple 4-11)", "values": [{"measurement": "mice died during treatment", "setting": "[1]; […] three times per week iv", "result": 4}]}, {"compound": "CC(=O)N[C@@H](CC(C)C)C(=O)N[C@H](C(=O)N[C@@H](C)C(=O)N[C@]1(C)CCCCCCC=CCCC[C@@](C)(C(=O)N[C@@H](CO)C(=O)N[C@@H](C)C(=O)N[C@@H](C)C(N)=O)NC(=O)[C@H](CC2CCC2)NC(=O)[C@H](CCC(N)=O)NC(=O)[C@H](C)NC(=O)[C@H](Cc2c[nH]c3ccccc23)NC(=O)[C@H](Cc2ccc(O)cc2)NC(=O)[C@H](CCC(=O)O)NC1=O)[C@@H](C)O", "note": "[SP252]", "values": [{"measurement": "% BW Change", "setting": "[1]; 30 mg/kg 3x/wk iv", "result": "+3.3%"}, {"measurement": "No. with ≥10% BW Loss", "setting": "[1]; 30 mg/kg 3x/wk iv", "result": "0/10"}, {"measurement": "No. with ≥20% BW Loss or death", "setting": "[1]; 30 mg/kg 3x/wk iv", "result": "0/10"}, {"measurement": "tolerability of dosing regimen", "setting": "[1]; [4]", "result": "well-tolerated with no body weight loss or deaths noted"}, {"measurement": "activity in the SJSA-1 in vitro viability assay", "setting": "SJSA-1", "result": "no activity"}, {"measurement": "TGI by Day 32", "setting": "[2]", "result": 88, "unit": "%"}]}, {"compound": "CC(=O)N[C@@H](CC(C)C)C(=O)N[C@H](C(=O)N[C@@H](Cc1ccccc1)C(=O)N[C@]1(C)CCCCCCC=CCCC[C@@](C)(C(=O)N[C@@H](C)C(=O)N[C@@H](C)C(=O)N[C@@H](C)C(=O)N[C@@H](C)C(=O)N[C@@H](C)C(=O)N[C@@H](C)C(=O)N[C@H](C)C(N)=O)NC(=O)[C@H](CC(C)C)NC(=O)[C@H](CCC(N)=O)NC(=O)[C@H](C)NC(=O)[C@H](Cc2c[nH]c3ccccc23)NC(=O)[C@H](Cc2ccc(O)cc2)NC(=O)[C@H](C)NC1=O)[C@@H](C)O", "note": "[SP316]", "values": [{"measurement": "Solubility", "setting": "FIGURE 19", "result": 5, "unit": "mg/mL"}]}, {"compound": "CC[C@]1(O)C[C@H]2CN(CCc3c([nH]c4ccccc34)[C@@](C(=O)OC)(c3cc4c(cc3OC)N(C=O)[C@H]3[C@@](O)(C(=O)OC)[C@H](OC(C)=O)[C@]5(CC)C=CCN6CC[C@]43[C@@H]65)C2)C1", "note": "[VCR, vincristine, reference compound]", "values": [{"measurement": "order of addition: effect on cell growth, AP1 and VCR", "setting": "DOHH-2; [3]", "result": "suppressed DOHH-2 cell growth with or without AP1"}]}, {"compound": "Nc1ncn([C@@H]2O[C@H](CO)[C@@H](O)[C@H]2O)c(=O)n1", "note": "[azacitidine, reference compound]", "values": [{"measurement": "order of addition: effect on cell growth, AP1 and azacitidine", "setting": "MV4-11", "result": "suppressed MV4-11 cell growth with or without AP1"}]}, {"compound": "CO[C@H]1C[C@@H]2CC[C@@H](C)[C@@](O)(O2)C(=O)C(=O)N2CCCC[C@H]2C(=O)O[C@H]([C@H](C)C[C@@H]2CC[C@@H](OCCO)[C@H](OC)C2)CC(=O)[C@H](C)/C=C(\\C)[C@@H](O)[C@@H](OC)C(=O)[C@H](C)C[C@H](C)/C=C/C=C/C=C/1C", "note": "[everolimus, reference compound]", "values": [{"measurement": "effect on MCF-7 cell proliferation", "setting": "MCF-7", "result": "inhibited MCF-7 breast cancer cell proliferation with limited cell killing as a single agent"}]}, {"compound": "C[C@]12CC[C@@H]3c4ccc(O)cc4C[C@@H](CCCCCCCCC[S+]([O-])CCCC(F)(F)C(F)(F)F)[C@H]3[C@@H]1CC[C@@H]2O", "note": "(some centres unmarked) [fulvestrant, reference compound]", "values": [{"measurement": "IC50", "setting": "MCF-7; MCF7, FUL + 0.4 μM Aileron peptide 1, MCF-7", "result": 0.000261, "unit": "µM"}, {"measurement": "IC50", "setting": "MCF-7; MCF7, FUL alone, MCF-7", "result": 0.000768, "unit": "µM"}, {"measurement": "effect on MCF-7 cell proliferation", "setting": "MCF-7", "result": "inhibited MCF-7 breast cancer cell proliferation with limited cell killing as a single agent"}]}, {"compound": "SP154 (LTFAEYWAQAASAA; not fully specified)", "values": [{"measurement": "% BW Change", "setting": "[1]; 30 mg/kg 3x/wk iv", "result": "+5.7%"}, {"measurement": "No. with ≥10% BW Loss", "setting": "[1]; 30 mg/kg 3x/wk iv", "result": "0/10"}, {"measurement": "No. with ≥20% BW Loss or death", "setting": "[1]; 30 mg/kg 3x/wk iv", "result": "0/10"}, {"measurement": "tolerability of dosing regimen", "setting": "[1]; [4]", "result": "well-tolerated"}, {"measurement": "No. with ≥10% BW Loss", "setting": "[1]; 40 mg/kg 2x/wk iv", "result": "0/10"}, {"measurement": "No. with ≥20% BW Loss or death", "setting": "[1]; 40 mg/kg 2x/wk iv", "result": "2/10 (2 deaths)"}, {"measurement": "tolerability of dosing regimen", "setting": "[1]; 40 mg/kg twice a week iv", "result": "not tolerable"}, {"measurement": "mice died during treatment", "setting": "[1]; 40 mg/kg twice a week iv", "result": 2}]}, {"compound": "SP752, Ac-t$r5wya$r5f4CF3ekllr-NH2 (peptide)", "values": [{"measurement": "IC50", "setting": "MDMX (In-house, 40 kD)", "result": "> 1", "unit": "µM"}, {"measurement": "IC50", "setting": "MDM2 (In-house, 41 kD)", "result": "> 0.1 µM and < 1 µM"}]}, {"compound": "SP753, Ac-tawy$r5nf4CF3e$r5llr-NH2 (peptide)", "values": [{"measurement": "IC50", "setting": "MDMX (In-house, 40 kD)", "result": "> 1", "unit": "µM"}, {"measurement": "IC50", "setting": "MDM2 (In-house, 41 kD)", "result": "> 0.01 µM and < 0.1 µM"}]}, {"compound": "SP754, Ac-tawya$r5f4CF3ek$r5lr-NH2 (peptide)", "values": [{"measurement": "IC50", "setting": "MDMX (In-house, 40 kD)", "result": "> 1", "unit": "µM"}, {"measurement": "IC50", "setting": "MDM2 (In-house, 41 kD)", "result": "> 0.1 µM and < 1 µM"}]}]}
